# Measured values taken from patent US20120029078A1, “COMPOSITIONS COMPRISING MYRISTIC ACID AND USES THEREOF” (IMAGENETIX, INC., priority 2010, published 2012).
# Assays:
# IFN-γ = assay: CD3/CD28-activated cytokine release from human primary T-lymphocytes: IFN-γ; format: cell-based; details: FIG. 7
# Method: Cytokine release from T-lymphocytes was measured and assessed in order to determine the anti-inflammatory effects of cetylated fatty acids such as 1-TDC and uncetylated fatty acids such as myristic acid. More specifically, the following compounds were tested: 1-TDC, 2-TDC, cetyl myristate (CM), myristic acid (MA), palmityl myristate (PM), palmityl oleate (PO), and palmityl myristoleate (PMO). For this experiment, peripheral blood mononuclear cells were isolated from healthy donors (n=8) with no known medication use by Ficoll-Hypaque density gradient centrifugation. Primary T-lymphocytes were separated from other mononuclear cells (e.g., monocytes) by negative selection using magnetic cell sorting (Dynal, Invitrogen) and pure cell cultures were treated with various doses of tested compounds for 30 minutes. The tested doses were 10^−5-10^−9M. Vehicle, which was used to dissolve the compounds into an aqueous preparation, was used as the negative control while dexamethasone (1 nM) was used as the positive control. After the incubation with test compounds, half the samples were treated with DynaBeads (Dynal, Invitrogen) coated with CD3 and CD28 antibodies as the activator of cell cytokine release. Cells were incubated over various time points at 37° C. under 5% CO2. Supernatants were collected at 24 and 48 hours and were stored at −80° C. until analyzed. Each sample was prepared in triplicates. The cytokine release was analyzed by xMAP multiplexing technology using Luminex 100 platform. This method allowed simultaneous analyses of all the cytokines proposed in this experiment. The following T-lymphocyte associated cytokines: IFN-γ, IL-2, IL-10, IL-5, and IL-4 were assessed. […] A paradigm shift between the cytokines by Th1 and Th2 indicates a more or less inflammatory process depending on which of these cytokines are increased. While the validity of this shift is questioned in different diseases and/or infections, the central role of T cells in the progression of inflammation is still evaluated on the cytokine release by these subsets of lymphocytes. Data was gathered throughout 24- and 48-hour time points for T-lymphocyte mediated release. Each experiment was repeated at least 3 times and data was presented as %-inhibition over the vehicle's effect of LPS-mediated cell activation.
# P. gingivalis A7436 = assay: Antibacterial activity: viability of P. gingivalis by Live/Dead BacLight staining and flow cytometry; format: cell-based, Porphyromonas gingivalis; details: for antibacterial capacity (percentage of dead bacteria) compared with chlorhexidine: FIG. 1, positive control chlorhexidine (CHX) 0.04%
# Method: P. gingivalis A7436 was cultured on laced blood paromomycin agar plates and then transferred to Schaedler's broth. All cultures were grown at 37° C. under anaerobic conditions. In order to dissolve the 1-TDC and MA in an aqueous medium that can be utilized in carrying out the experiments, the following ingredients were used: ethanol (EtOH) and Methyl-β-cyclodextrin (Sigma-Aldrich, St. Louis, Mo.). More specifically, 750.0 mg of Methyl-β-cyclodextrin was dissolved in 5.0 mL of nano-pure water to get a concentration 150.0 mg/mL (MBC). The MBC solution was stored in the refrigerator at a temperature of 4° C. and was returned to room temperature before use. MA was prepared by dissolving 90.0 mg in 3.0 mL of ETOH, 2.4 mL of MBC, and 24.6 mL of SB in a sterile tube. The entire mixture was placed in a hot bath at 30° C. for 30 minutes. The final concentration of MA was 3.0 mg/mL.
# 2×10^7 cells were transferred to 5 mL culture tubes and treated with either 1-TDC or MA (1.0 mg/ml, 0.7 mg/mL, 0.5 mg/mL, 0.3 mg/mL, 0.1 mg/mL) or corresponding vehicle concentrations. A negative control was treated with additional Schaedler's broth. Tubes were incubated in anaerobic jars at 37° C. for several time points between 4-72 hours.
# After incubation, viability of the P. gingivalis cells was assessed. 1 mL of each sample was removed and spun down. Bacteria were resuspended in 1 mL of 0.85% NaCl solution. To generate a standard curve, half of the bacteria that was not treated with vehicle or compound were heat-killed for one hour and then mixed with live cells in known proportions (0%, 25%, 50%, 75% and 100% alive). The 100% live cells were used as the negative control. To assess the viability, a fluorescent based kit was used. Live/Dead BacLight Bacterial Viability Kit (Invitrogen L7012) allows for differentiation between alive and dead bacteria at a highly accurate and sensitive way. […]
# Samples were then run on the flow cytometer (FACScan). […] From these established regions, percent viability of the experimental samples were determined.
# IL-8 = assay: LPS-activated cytokine release from human primary monocytes (xMAP Luminex): IL-8; format: cell-based; details: 24 hours
# Method: (§1) Cytokine release from monocytes was measured and assessed in order to determine the anti-inflammatory effects of cetylated fatty acids such as 1-TDC and non-cetylated fatty acids such as myristic acid. Human primary monocytes were provided by healthy subjects (n=7) who were not taking medication, had no medical condition, and no periodontal or gingival inflammation. None of the subjects were smokers and all subjects were of Caucasian origin with an age range of 24-51 years old. All patient samples were obtained after the approval of the Institutional Review Board at Boston University Medical Center.
# (§2) Fresh peripheral venous blood ([…]) was obtained by venipuncture into heparinized (10 U/mL) glass tubes. Monocytes were isolated using Ficoll-Hypaque density gradient centrifugation and separated from the other mononuclear cells (e.g., lymphocytes) by adherence for over 2 hours. Pure cell cultures were treated with various doses (10^−5-10^−9 M) of various types of fatty acids such as 1-TDC and myristic acid for 30 minutes. […] Supernatants were collected and stored at −80° C. until analyzed. […] Cytokine release (IL-1β, TNF-α, IL-6, IL-12, IL-8, and MCP-1) was analyzed by xMAP multiplexing technology using Luminex 100 Platform. […]
# IL-12 = assay: LPS-activated cytokine release from human primary monocytes (xMAP Luminex): IL-12; format: cell-based; details: 24 hours
# Method: as §1, §2
# IL-1β = assay: LPS-activated cytokine release from human primary monocytes (xMAP Luminex): IL-1β; format: cell-based; details: 24 hours
# Method: as §1
# (§3) Fresh peripheral venous blood ([…]) was obtained by venipuncture into heparinized (10 U/mL) glass tubes. Monocytes were isolated using Ficoll-Hypaque density gradient centrifugation and separated from the other mononuclear cells (e.g., lymphocytes) by adherence for over 2 hours. Pure cell cultures were treated with various doses (10^−5-10^−9 M) of various types of fatty acids such as 1-TDC and myristic acid for 30 minutes. Vehicle (5% ethyl alcohol), which was used to dissolve the compound into an aqueous preparation, was used as the negative control while dexamethasone (1 nM) was used as the positive control. After incubation with the test compound, half of the samples were treated with LPS from E. coli (100 ng/mL) as the activator of cell cytokine release over various time points (24 hours) at 37° C. under 5% CO2. Supernatants were collected and stored at −80° C. until analyzed. Each sample was prepared in triplicate. Cytokine release (IL-1β, TNF-α, IL-6, IL-12, IL-8, and MCP-1) was analyzed by xMAP multiplexing technology using Luminex 100 Platform. Data was presented as % inhibition over the vehicle's effect of LPS-mediated cell activation. Dexamethasone inhibition was taken as 100% inhibition.
# (§4) Cytokine release data were gathered at 6, 24, and 48 hour time points for monocyte/macrophages (FIGS. 3-5). Each experiment was repeated at least 3 times and data was presented as percentage of inhibition over the vehicle's effect of LPS-mediated cell activation.
# TNF-α = assay: LPS-activated cytokine release from human primary monocytes (xMAP Luminex): TNF-α; format: cell-based
# Method: as §1, §3, §4
# [1] = test system: periodontal disease established by P. gingivalis; assay: Rabbit periodontal disease established by P. gingivalis, topical treatment; format: in vivo, New-Zealand White rabbits
# From the text: Fifteen New-Zealand White rabbits are distributed into 3 groups: (1)
# No treatment (5 animals), (2) Placebo treatment (5 animals), and (3) myristic acid treatment (5 animals). In all animals, periodontal disease is established by P. gingivalis application every-other-day over a 6-week period. At 6 weeks, P. gingivalis application is terminated and topical use of the myristic acid and placebo agents is initiated for a second 6 weeks at which time animals are sacrificed. Morphometric, radiographic, and histologic evaluations are performed. Histologic sections are stained with hematoxylin-eosin, and tartrate-resistant acid phosphatase (TRAP) for descriptive histology and osteoclast activity. In addition, osteocalcin staining is used to detect osteoblast activity.
# MCP-1 = assay: LPS-activated cytokine release from human primary monocytes (xMAP Luminex): MCP-1; format: cell-based
# Method: as §1, §3, §4
# IL-2 = assay: CD3/CD28-activated cytokine release from human primary T-lymphocytes: IL-2; format: cell-based; details: 24 hour period; FIG. 8
# Method: (§5) Cytokine release from T-lymphocytes was measured and assessed in order to determine the anti-inflammatory effects of cetylated fatty acids such as 1-TDC and uncetylated fatty acids such as myristic acid. More specifically, the following compounds were tested: 1-TDC, 2-TDC, cetyl myristate (CM), myristic acid (MA), palmityl myristate (PM), palmityl oleate (PO), and palmityl myristoleate (PMO). For this experiment, peripheral blood mononuclear cells were isolated from healthy donors (n=8) with no known medication use by Ficoll-Hypaque density gradient centrifugation. Primary T-lymphocytes were separated from other mononuclear cells (e.g., monocytes) by negative selection using magnetic cell sorting (Dynal, Invitrogen) and pure cell cultures were treated with various doses of tested compounds for 30 minutes. The tested doses were 10^−5-10^−9M. […] Supernatants were collected at 24 and 48 hours and were stored at −80° C. until analyzed. […] The cytokine release was analyzed by xMAP multiplexing technology using Luminex 100 platform. […] The following T-lymphocyte associated cytokines: IFN-γ, IL-2, IL-10, IL-5, and IL-4 were assessed. […] While the validity of this shift is questioned in different diseases and/or infections, the central role of T cells in the progression of inflammation is still evaluated on the cytokine release by these subsets of lymphocytes. […]
# IL-6 = assay: LPS-activated cytokine release from human primary monocytes (xMAP Luminex): IL-6; format: cell-based; details: 24 hours
# Method: as §1, §2
# IL-4 = assay: CD3/CD28-activated cytokine release from human primary T-lymphocytes: IL-4; format: cell-based; details: 24 and 48 hours; FIG. 10
# Method: as §5
# IL-10 = assay: CD3/CD28-activated cytokine release from human primary T-lymphocytes: IL-10; format: cell-based; details: 24 and 48 hours; FIG. 9
# Method: as §5
# IL-5 = assay: CD3/CD28-activated cytokine release from human primary T-lymphocytes: IL-5; format: cell-based; details: 24 and 48 hours; FIG. 11
# Method: as §5
structure (smiles),measurement,setting,value
"CCCCCCCCCCCCCC(=O)O [Myristic Acid, Myristic acid]",activation of IFN-γ release by T-lymphocytes,IFN-γ; over 24 and 48 hours,capacity to activate IFN-γ release by T cells and this effect increased over time
same,antibacterial capacity (percentage of dead bacteria) compared with chlorhexidine,P. gingivalis A7436,comparable level of antibacterial capacity as seen with chlorhexidine
same,dose dependence of antibacterial activity against P. gingivalis,"P. gingivalis A7436; FIG. 2, increases dramatically at 0.1 mg/ml and higher doses (e.g., 1 mg/ml)",dose-dependent
same,"monocyte-mediated IL-8 release, inhibition",IL-8,significantly and dose dependently inhibited
same,"monocyte-mediated IL-12 release, inhibition",IL-12,significantly and dose dependently inhibited
same,"monocyte-mediated IL-1β release, inhibition",IL-1β,significantly and dose dependently inhibited
same,"monocyte-mediated TNF-α release, inhibition (text)",TNF-α; 24 hours,all cytokines except TNF-α
same,histomorphometric tissue and bone level vs placebo and no treatment,[1]; 6 weeks,significant changes in tissue and bone level
same,inflammatory changes in hematoxylin-eosin stained sections,[1]; 6 weeks,complete reversal of inflammatory changes
same,reformation of soft and bone tissues lost to periodontal inflammation,[1]; 6 weeks,reform soft and bone tissues
same,progression of gingival inflammation and bone destruction induced by P. gingivalis,[1]; 6 weeks after 6 weeks of disease induction,stops the progression
same,osteoclastic activity,"[1]; 6 weeks, TRAP staining",significantly suppresses
same,osteoblastic activity,"[1]; 6 weeks, osteocalcin staining",increased osteoblastic activity
same,"monocyte-mediated MCP-1 release, inhibition",MCP-1; 24 hours,significantly and dose dependently inhibited
same,effect on T-lymphocyte IL-2 production,IL-2,activated
same,"monocyte-mediated IL-6 release, inhibition",IL-6,significantly and dose dependently inhibited
"CCCC/C=C\CCCCCCCC(=O)OCCCCCCCCCCCCCCCC [Palmityl Myristoleate, palmityl myristoleate]",effect on IFN-γ production by T-lymphocytes,IFN-γ; 24 hour mark,inhibit
same,effect on IFN-γ production by T-lymphocytes,IFN-γ; 48 hour mark,inhibit
same,"monocyte-mediated IL-1β release, inhibition",IL-1β,significantly and fully inhibited
same,"monocyte-mediated TNF-α release, inhibition (text)",TNF-α; 24 hours,significantly and fully inhibited
"CCCCCCCCCCCCCCCCOC(=O)CCCCCCCCCCCCC [Cetyl Myristate, cetyl myristate]",IL-4 generation by human T cells (activation),IL-4,most potent compound tested
same,dose dependence of activation of T-cell IFN-γ release,IFN-γ; 10^−5-10^−9M,dose-dependent activation
same,"monocyte-mediated IL-8 release, inhibition",IL-8,inhibited
same,T-lymphocyte release of IL-10 (activation),IL-10,most potent activator
same,"monocyte-mediated TNF-α release, inhibition (text)",TNF-α; 6 hours,inhibits
same,"monocyte-mediated TNF-α release, inhibition (text)","TNF-α; 24 hours, listed as Cetyl myristate",inhibition on TNF-α continued
same,"monocyte-mediated MCP-1 release, inhibition",MCP-1; 6 hours,inhibited
same,"monocyte-mediated MCP-1 release, inhibition",MCP-1; 24 hours,inhibited
same,IL-5 release by human T cells (activation),IL-5,most potent activator
CCCCCCCCCCCCCC(=O)[O-].[Na+] [sodium myristate],antibacterial capacity (percentage of dead bacteria) compared with chlorhexidine,P. gingivalis A7436,comparable level of antibacterial capacity as seen with chlorhexidine
"CCCCCCCC/C=C\CCCCCCCC(=O)OCCCCCCCCCCCCCCCC [Palmityl Oleate, palmityl oleate]",effect on IFN-γ production by T-lymphocytes,IFN-γ; 24 hour mark,inhibit
same,"monocyte-mediated IL-1β release, inhibition",IL-1β,significantly and fully inhibited
same,"monocyte-mediated TNF-α release, inhibition (text)",TNF-α; 24 hours,significantly and fully inhibited
"CCCCCCCCCCCCCCCCOC(=O)CCCCCCCCCCCCC [Palmityl Myristate, palmityl myristate]","monocyte-mediated TNF-α release, inhibition (text)","TNF-α; 24 hours, listed as palmityl myristate","blocked TNF-α release, however the inhibition was weaker compared to cetyl myristate"
